Experimental data reported in paper PMC12040169 (PLOS Biology, 2025).

experiment: in vitro; conditions: human, hela cells, % viability

Row | Structure (SMILES) | viability at 28.5 h, 10 µM [%]
1 | CC(CCCC(C)(C)O)NCCO (centres unmarked) [CBK262340] | 96.3
2 | CCN1CCCC1CNC(=O)C(=O)Nc1ccccc1OC (centres unmarked) [CBK266865] | 103
3 | Cc1ccccc1NC(=O)c1ccccc1Cl [CBK116485] | 104
4 | Cc1nc(CN2CCCC(NCc3cccc(C(N)=O)c3)C2)no1 (centres unmarked) [CBK304929] | 94.2
5 | COCCn1cc(C(=O)N2CCOC3CCCCC32)c2ccccc21 (centres unmarked) [CBK305288] | 113
6 | O=C(CN1C(=O)c2ccccc2C1=O)N1CCN(Cc2ccc3c(c2)OCO3)CC1 [CBK074846] | 97.3
7 | Fc1ccc(-c2cnn(-c3ccc(OC(F)(F)F)cc3)n2)c(F)c1 [CBK112740] | 99.1
8 | Fc1cccc2sc(Nc3nnc(-c4ccco4)o3)nc12 [CBK287480] | 82.6
9 | O=C(Nc1ccccc1N1CCOCC1)c1cccc(OCc2ccccc2)c1 [CBK270011] | 104
10 | O=C(Nc1cccc(C(F)(F)F)c1)N[C@H]1[C@H](O)[C@@H](Oc2ccccc2)[C@@H]2OC[C@H]1O2 [CBK288811] | 106
11 | CN(C)c1cccc(OCCn2ccnc(N3CCNCC3)c2=O)c1 [CBK013866F] | 114
12 | COc1ccc(NC(=O)c2cc(-c3cccc(Cl)c3)nc3ccccc23)c([N+](=O)[O-])c1 [CBK267777] | 86.7
13 | CCOC(=O)c1csc(C2CCCN2C(=O)CC2C=CCCC2)n1 (centres unmarked) [CBK305407] | 97.8
14 | CC(C)C(=O)N1CC(C)N(CCCC(c2ccc(F)cc2)c2ccc(F)cc2)CC1C (centres unmarked) [CBK024961C] | 97.6
15 | CCc1ccc(C(O)CNC2CCN(Cc3cscn3)CC2)cc1 (centres unmarked) [CBK304733] | 108
16 | Cc1onc(-c2c(Cl)cccc2Cl)c1N(C)C(=O)N1CCCCC1 [CBK086555] | 109
17 | C#CCNS(=O)(=O)c1cccc(C(=O)NC2CCN(CCOC)CC2)c1 [CBK305714] | 89
18 | CCc1nc(COC(=O)C2CCN(C(=O)c3ccc(F)cc3)CC2)cs1 [CBK305725] | 111

Row | Structure (SMILES) | viability at 28.5 h, 10 µM [%]
19 | COc1ccc(/C(C#N)=C/c2ccc(-c3ccc(C(=O)O)cc3)o2)cc1OC [CBK268953] | 108
20 | COc1ccc2c(c1)CCN=C2C[C@H]1CN(C(=O)C2CC2)CC[C@H]1CC(=O)O [CBK289154] | 108
21 | Cc1cc(C)nc(Nc2n[nH]c(-c3ccc(NC(=O)Nc4ccccc4)cc3)n2)n1 [CBK267076] | 92.7
22 | COc1ccc2c(c1)CCC(c1ccccc1)=C2c1ccc(OCC(O)CN)cc1 (centres unmarked) [CBK015723C] | 70.5
23 | CC(C)c1ccc(S(=O)(=O)Nc2ccc(Br)c(F)c2)cc1 [CBK044556] | 100
24 | COc1ccc(S(=O)(=O)N2CCC(C(=O)Nc3cccc(F)c3)CC2)cc1C [CBK267987] | 92
25 | CCC(C)(C)NC(=NC#N)Nc1cccnc1 [CBK016580] | 85.1
26 | CC(=O)Nc1ccc(NS(=O)(=O)c2ccc(C)c(C(=O)O)c2)cc1 [CBK295162] | 85.9
27 | Cc1ccc(OC(=O)CCC(=O)Nc2ccc(S(N)(=O)=O)cc2)cc1 [CBK264708] | 95.1
28 | Cn1cccc1C(=O)N[C@H]1C[C@@H]2C(=O)N[C@H]3CCN(C(=O)CC(C)(C)C)[C@@H]3C(=O)N2C1 [CBK289271] | 111
29 | Cc1noc(C)c1NC(=O)CCc1cccnc1 [CBK200392] | 99.6
30 | COc1ccc(-c2cnn(-c3ccccc3CN(C)C)n2)cc1 [CBK112762] | 106
31 | O=C(CSc1ncnc2[nH]ncc12)c1ccc(-c2ccccc2)cc1 [CBK300519] | 88.4
32 | O=S(=O)(c1ccc(Cl)s1)N1CCN(Cc2ccc3c(c2)OCO3)CC1 [CBK270324] | 89.5
33 | CCc1nc2ccc(C(=O)N3CCN(C(=O)c4ccco4)CC3)cn2c1N(C)Cc1ccncc1 [CBK145635] | 94.5
34 | Nc1ccc(Sc2nccnc2N2CCCC2)cc1 [CBK089520] | 94.4
35 | CC(C)C(=O)N1CC2(CCN(Cc3ncc[nH]3)CC2)c2ccccc21 [CBK126731] | 109
